Target: T1, rat P2X3 receptor (Rattus norvegicus, UniProt P49654)
T1 construct: expressed in transfected cells; host or cells: CHO-K1
T1 sequence (P49654 1-397): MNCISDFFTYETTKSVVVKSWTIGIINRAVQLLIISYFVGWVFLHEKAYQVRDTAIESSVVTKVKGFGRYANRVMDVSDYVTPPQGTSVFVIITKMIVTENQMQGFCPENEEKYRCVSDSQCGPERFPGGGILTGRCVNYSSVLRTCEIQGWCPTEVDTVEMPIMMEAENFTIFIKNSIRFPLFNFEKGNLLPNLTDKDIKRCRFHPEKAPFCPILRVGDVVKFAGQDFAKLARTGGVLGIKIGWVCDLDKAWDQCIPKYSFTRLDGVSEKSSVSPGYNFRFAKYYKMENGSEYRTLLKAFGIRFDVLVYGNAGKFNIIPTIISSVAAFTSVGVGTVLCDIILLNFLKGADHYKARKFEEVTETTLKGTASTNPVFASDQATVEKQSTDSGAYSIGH
Experiment: P2X3 FLIPR (Fluorometric Imaging Plate Reader) assay
Type: cell-based
Conditions: CHO-K1 cells transfected with cloned rat P2X3; agonist α,β-meATP 1 μM; Fluo-3 AM calcium fluorescence
Protocol: CHO-K1 cells were transfected with cloned rat P2X3 or human P2X2/3 receptor subunits and passaged in flasks. 18-24 hours before the FLIPR experiment, cells were released from their flasks, centrifuged, and resuspended in nutrient medium at 2.5×10^5 cells/ml. The cells were aliquoted into black-walled 96-well plates at a density of 50,000 cells/well and incubated overnight in 5% CO2 at 37° C. On the day of the experiment, cells were washed in FLIPR buffer (calcium- and magnesium-free Hank's balanced salt solution, 10 mM HEPES, 2 mM CaCl2, 2.5 mM probenecid; FB). Each well received 100 μl FB and 100 μl of the fluorescent dye Fluo-3 AM [2 μM final conc.]. After a 1 hour dye loading incubation at 37° C., the cells were washed 4 times with FB, and a final 75 μl/well FB was left in each well.
Test compounds (dissolved in DMSO at 10 mM and serially diluted with FB) or vehicle were added to each well (25 μl of a 4× solution) and allowed to equilibrate for 20 minutes at room temperature. The plates were then placed in the FLIPR and a baseline fluorescence measurement (excitation at 488 nm and emission at 510-570 nm) was obtained for 10 seconds before a 100 μl/well agonist or vehicle addition. The agonist was a 2X solution of α,β-meATP producing a final concentration of 1 μM (P2X3) or 5 μM (P2X2/3). Fluorescence was measured for an additional 2 minutes at 1 second intervals after agonist addition. A final addition of ionomycin (5 μM, final concentration) was made to each well of the FLIPR test plate to establish cell viability and maximum fluorescence of dye-bound cytosolic calcium. Peak fluorescence in response to the addition of α,β-meATP (in the absence and presence of test compounds) was measured and inhibition curves generated using nonlinear regression. PPADS, a standard P2X antagonist, was used as a positive control.

Row | Compound | P2X3 (pIC50 values for the P2X3 receptor)
1 | COCC(C)NC(=O)c1cc(NC(=O)c2cc(C)nn2C)cc(-c2ccc(C)cc2)c1 (centres unmarked) [Compound 15, 2,5-Dimethyl-2H-pyrazole-3-carboxylic acid [5-(2-methoxy-1-methyl-ethylcarbamoyl)-4′-methyl-biphenyl-3-yl]-amide] | 5.34
2 | CC(C)C(=O)N(C)c1cc(C(=O)NC(C)c2cnccn2)cc(-c2ccc(F)cc2F)c1 (centres unmarked) [Compound 66, 2′,4′-Difluoro-5-(isobutyryl-methyl-amino)-biphenyl-3-carboxylic acid (1-pyrazin-2-yl-ethyl)-amide] | 6.63
3 | COCC(C)NC(=O)c1cc(NC(=O)c2ccc(C(F)(F)F)cc2Cl)cc(-c2ccc(C)cc2)c1 (centres unmarked) [Compound 10, 5-(2-Chloro-4-trifluoromethyl-benzoylamino)-4′-methyl-biphenyl-3-carboxylic acid (2-methoxy-1-methyl-ethyl)-amide] | 5.87
4 | CCC(C)C(=O)N(C)c1cc(C(=O)NC(C)c2cnccn2)cc(-c2ccc(C)cc2)c1 (centres unmarked) [Compound 46, 4′-Methyl-5-[methyl-(2-methyl-butyryl)-amino]-biphenyl-3-carboxylic acid (1-pyrazin-2-yl-ethyl)-amide] | 8.04
5 | CCN(C(C)=O)c1cc(C(=O)NC(C)c2cnccn2)cc(-c2ccc(C)cc2)c1 (centres unmarked) [Compound 21, 5-(Acetyl-ethyl-amino)-4′-methyl-biphenyl-3-carboxylic acid (1-pyrazin-2-yl-ethyl)-amide] | 7.28
6 | CCN(C(=O)OCC(C)C)c1cc(C(=O)NC(C)c2cnccn2)cc(-c2ccc(C)cc2)c1 (centres unmarked) [Compound 35, Ethyl-[4′-methyl-5-(1-pyrazin-2-yl-ethylcarbamoyl)-biphenyl-3-yl]-carbamic acid isobutyl ester] | 6.82
7 | Cc1ccc(-c2cc(C(=O)NCc3cnccn3)cc(N(C)C(=O)C(C)C)c2)cc1 [Compound 62, 5-(Isobutyryl-methyl-amino)-4′-methyl-biphenyl-3-carboxylic acid (pyrazin-2-ylmethyl)-amide] | 8.14
8 | CC(=O)N(C)c1cc(C(=O)NC(C)c2cnccn2)cc(-c2ccc(C)cc2)c1 (centres unmarked) [Compound 20, 5-(Acetyl-methyl-amino)-4′-methyl-biphenyl-3-carboxylic acid (1-pyrazin-2-yl-ethyl)-amide] | 6.05
9 | COC[C@@H](C)NC(=O)c1cc(-c2ccc(Cl)cc2Cl)cc(N(C)C(=O)C(C)C)c1 [Compound 63, 2′,4′-Dichloro-5-(isobutyryl-methyl-amino)-biphenyl-3-carboxylic acid ((R)-2-methoxy-1-methyl-ethyl)-amide] | 5.94
10 | COCC(C)NC(=O)c1cc(NC(=O)c2ccc(C)s2)cc(-c2ccc(C)cc2)c1 (centres unmarked) [Compound 2, 5-Methyl-thiophene-2-carboxylic acid [5-(2-methoxy-1-methyl-ethylcarbamoyl)-4′-methyl-biphenyl-3-yl]-amide] | 5.2
11 | CCNC(=O)N(C)c1cc(C(=O)NC(C)c2cnccn2)cc(-c2ccc(Cl)cc2)c1 (centres unmarked) [Compound 45, 4′-Chloro-5-(3-ethyl-1-methyl-ureido)-biphenyl-3-carboxylic acid (1-pyrazin-2-yl-ethyl)-amide] | 5.38
12 | CCN(C(=O)COC)c1cc(C(=O)NC(C)c2cnccn2)cc(-c2ccc(C)cc2)c1 (centres unmarked) [Compound 23, 5-[Ethyl-(2-methoxy-acetyl)-amino]-4′-methyl-biphenyl-3-carboxylic acid (1-pyrazin-2-yl-ethyl)-amide] | 6.5
13 | COCC(C)NC(=O)c1cc(NC(=O)c2ccc(F)cc2Cl)cc(-c2ccc(C)cc2)c1 (centres unmarked) [Compound 9, 5-(2-Chloro-4-fluoro-benzoylamino)-4′-methyl-biphenyl-3-carboxylic acid (2-methoxy-1-methyl-ethyl)-amide] | 5.44
14 | COCC(C)NC(=O)c1cc(NC(=O)c2cccs2)cc(-c2ccc(C)cc2)c1 (centres unmarked) [Compound 4, Thiophene-2-carboxylic acid [5-(2-methoxy-1-methyl-ethylcarbamoyl)-4′-methyl-biphenyl-3-yl]-amide] | 5.51
